Test results taken from patent publication US7179825B2, “Retinoic acid mimetic anilides” (Janssen Pharmaceutica N.V., priority 1997, dated 2007).

Tests used:
[1] = test system: Ovariectomized rats; test: Vaginal keratinization test on ovariectomized rats (Example C.2); format: in vivo; details: estradiol undecylate induced keratinization, per os once daily on days 1-3, active dose = 50% of rats show complete suppression
Method in brief: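 Ovariectomized rats given s.c. estradiol undecylate (100 μg per 100 g body weight in sesame oil), then oral compound once daily on days 1-3 (vehicle PEG 200). Vaginas assessed histologically one day after last dose; lowest active dose (mg/kg) is the dose giving complete keratinization suppression in 50% of rats.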

[2] = test system: metabolism of retinoic acid in human breast cancer cells; test: Inhibition of retinoic acid (RA) metabolism (Example C.1); format: cell-based; details: MCF-7 human breast cancer cells, 3H-RA as substrate, concentration needed to reduce the amount of metabolites to 50% of the control
Method in brief: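 MCF-7 cells, pre-stimulated with RA the day before, incubated with ³H-RA substrate and test compound in 1% DMSO. Polar ³H-metabolites separated from unmetabolized RA and counted by scintillation. IC50 is the concentration cutting metabolite formation to 50% of control, with blank run alongside.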

SMILES	IC50 [2]	IC50 ([2]; MCF7)	LAD (lowest active dose) [1]	minimal effective dose ([1]; Rattus norvegicus, po, read-out: LAD (lowest active dose))
CC(C)C(c1ccc(NC(=O)Nc2cccc([N+](=O)[O-])c2)cc1)n1ccnc1 (racemic) [Compound 737]	2.36 nM	–	>10.00 mg/kg	–
CC(C)C(c1ccc(NC(=O)Nc2cccc(Cl)c2)cc1)n1ccnc1 (racemic) [Compound 738]	2.03 nM	–	10.00 mg/kg	–
CC(C)C(c1ccc(NC(=O)Nc2ccc(Cl)cc2)cc1)n1ccnc1 (racemic) [Compound 739]	42.1 nM	–	>10.00 mg/kg	–
CC(C)C(c1ccc(NC(=O)Nc2ccc(F)cc2)cc1)n1ccnc1 (racemic) [Compound 740, (±)-N-(4-fluorophenyl)-N′-[4-[1-(1H-imidazol-1-yl)-2-methylpropyl]phenyl]urea]	–	1.29 nM	–	20 mg/kg
CC(C)C(c1ccc(NC(=O)Nc2cccc(F)c2)cc1)n1ccnc1 (racemic) [Compound 741]	1.44 nM	–	10.00 mg/kg	–
CCCCC(c1ccc(NC(=O)/C(C)=C/c2ccccc2)cc1)(C(C)C)n1ccnc1 (racemic) [Compound 761]	> 100 nM	–	>5.00 mg/kg	–
CCC(CC)C(c1ccc(NC(=O)C(O)c2ccc(Cl)cc2)cc1)n1cncn1 (single isomer, unassigned) [Compound 21]	2.89 nM	–	5.00 mg/kg	–
CCC(CC)C(c1ccc(NC(=O)Cc2ccc(OC)c(C)c2)cc1)n1cncn1 (single isomer, unassigned) [Compound 85]	3.92 nM	–	2.50 mg/kg	–
COc1ccc(CC(=O)Nc2ccc(C(C(C)N(C)C)n3cncn3)cc2)cc1Cl (single isomer, unassigned) [Compound 288]	1.28 nM	–	>2.50 mg/kg	–
Cc1cc(CC(=O)Nc2ccc(C(C(C)N(C)C)n3cncn3)cc2)cc(C)c1C (single isomer, unassigned) [Compound 290]	1.14 nM	–	2.50 mg/kg	–
Cc1cc(CC(=O)Nc2ccc(C(C(C)N(C)C)n3cncn3)cc2)cc(C)c1C (single isomer, unassigned) [Compound 291]	4.23 nM	–	>2.50 mg/kg	–
CCOc1ccc(CC(=O)Nc2ccc(C(C(C)N(C)C)n3cncn3)cc2)cc1OCC (single isomer, unassigned) [Compound 293]	6.53 nM	–	>2.50 mg/kg	–
CCOc1ccc(CC(=O)Nc2ccc(C(C(C)N(C)C)n3ccnc3)cc2)cc1OCC (single isomer, unassigned) [Compound 301]	6.05 nM	–	>2.50 mg/kg	–
Cc1ccc(CC(=O)Nc2ccc(C(C(C)N(C)C)n3ccnc3)cc2)cc1C (single isomer, unassigned) [Compound 306]	1.26 nM	–	>2.50 mg/kg	–
Cc1cc(CC(=O)Nc2ccc(C(C(C)N(C)C)n3ccnc3)cc2)cc(C)c1C (single isomer, unassigned) [Compound 309]	3.65 nM	–	>2.50 mg/kg	–
CC(C)Oc1ccc(CC(=O)Nc2ccc(C(C(C)N(C)C)n3ccnc3)cc2)cc1 (single isomer, unassigned) [Compound 316]	4.06 nM	–	5.00 mg/kg	–
CC(C(c1ccc(NC(=O)Cc2ccc3c(c2)OCO3)cc1)n1cncn1)N(C)C (single isomer, unassigned) [Compound 330]	1.82 nM	–	2.50 mg/kg	–
C/C(=C\c1ccccc1)C(=O)Nc1ccc(C(C(C)N(C)C)n2cncn2)cc1 (single isomer, unassigned) [Compound 332]	1.5 nM	–	>2.50 mg/kg	–
CC(C(c1ccc(NC(=O)Cc2ccc3c(c2)OCCO3)cc1)n1ccnc1)N(C)C (single isomer, unassigned) [Compound 339]	1.23 nM	–	>2.50 mg/kg	–
CCOc1ccc(CCC(=O)Nc2ccc(C(C(C)N(C)C)n3ccnc3)cc2)cc1 (single isomer, unassigned) [Compound 346]	2.04 nM	–	>5.00 mg/kg	–
COc1ccccc1OCC(=O)Nc1ccc(C(C(C)N(C)C)n2ccnc2)cc1 (single isomer, unassigned) [Compound 351]	5.69 nM	–	>5.00 mg/kg	–
CC(C(c1ccc(NC(=O)CN2CCN(C)CC2)cc1)n1ccnc1)N(C)C (single isomer, unassigned) [Compound 353]	1.97 nM	–	>5.00 mg/kg	–
CC(C(c1ccc(NC(=O)Cc2ccc(Cl)cc2)cc1)n1ccnc1)N1CCCCC1 (single isomer, unassigned) [Compound 366]	3.05 nM	–	>10.00 mg/kg	–
CC(C(c1ccc(NC(=O)Cc2ccc(Cl)cc2)cc1)n1ccnc1)N(C)C (single isomer, unassigned) [Compound 367]	1.25 nM	–	2.50 mg/kg	–

Further lines, with some results ahead:

IC50 [2]	IC50 ([2]; MCF7)	SMILES	LAD (lowest active dose) [1]	minimal effective dose ([1]; Rattus norvegicus, po, read-out: LAD (lowest active dose))
0.261 nM	–	CC(C)C(c1ccc(NC(=O)Nc2ccccc2)cc1)n1ccnc1 (racemic) [Compound 742]	10.00 mg/kg	–
0.146 nM	–	CCC(CC)C(O)(c1ccc(NC(C)=O)cc1)c1cncn1C (racemic) [Compound 772]	>5.00 mg/kg	–
0.734 nM	–	CCOc1ccc(CCC(=O)Nc2ccc(C(C(CC)CC)n3ccnc3)cc2)cc1 (single isomer, unassigned) [Compound 61]	2.50 mg/kg	–
0.497 nM	–	CCC(CC)C(c1ccc(NC(=O)Cc2ccc(OC)c(C)c2)cc1)n1cncn1 (single isomer, unassigned) [Compound 86]	2.50 mg/kg	–
0.507 nM	–	CC(C(c1ccc(NC(=O)Cc2ccc(O)c(Cl)c2)cc1)n1cncn1)N(C)C (single isomer, unassigned) [Compound 289]	>2.50 mg/kg	–
0.137 nM	–	COc1cc(CC(=O)Nc2ccc(C(C(C)N(C)C)n3cncn3)cc2)cc(OC)c1OC (single isomer, unassigned) [Compound 292]	>2.50 mg/kg	–
0.786 nM	–	COc1cc(CC(=O)Nc2ccc(C(C(C)N(C)C)n3cncn3)cc2)ccc1Cl (single isomer, unassigned) [Compound 297]	>2.50 mg/kg	–
0.701 nM	–	CC(C(c1ccc(NC(=O)Cc2ccc(O)c(Cl)c2)cc1)n1ccnc1)N(C)C (single isomer, unassigned) [Compound 307]	>2.50 mg/kg	–
0.664 nM	–	COc1cc(CC(=O)Nc2ccc(C(C(C)N(C)C)n3ccnc3)cc2)ccc1Cl (single isomer, unassigned) [Compound 311]	2.50 mg/kg	–
0.02 nM	–	COc1ccc(CC(=O)Nc2ccc(C(C(C)N(C)C)n3ccnc3)cc2)cc1C (single isomer, unassigned) [Compound 313]	2.50 mg/kg	–
0.257 nM	–	CC(C(c1ccc(NC(=O)CN2CCN(C)CC2)cc1)n1ccnc1)N(C)C (single isomer, unassigned) [Compound 352]	>5.00 mg/kg	–
0.583 nM	–	CC(C(c1ccc(NC(=O)Cc2ccc(Cl)cc2)cc1)n1ccnc1)N(C)C (single isomer, unassigned) [Compound 368]	2.50 mg/kg	–
